Assay results: patent US9518046B2 (Calitor Sciences, LLC, priority 2015, dated 2016)

Assay: Pharmacokinetics after intravenous and oral administration in rats
Format: in vivo
Settings: Rats; iv dosing; dose 1 mg/kg (0.5 for Ex. 1, 10, 11, 35; 0.48 for Ex. 24)
Procedure: The LC/MS/MS system used in the analysis consists of an Agilent 1200 Series vacuum degasser, binary pump, well-plate autosampler, thermostatted column compartment, the Agilent G6430 Triple Quadrupole Mass Spectrometer with an electrosprayionization (ESI) source. Quantitative analysis was carried out using MRM mode. The parameters for MRM transitions are in the Table A.
An Agilent XDB-C18, 2.1×30 mm, 3.5 M column was used for the analysis. 5 L of the samples were injected. Analysis condition: The mobile phase was 0.1% formic acid in water (A) and 0.1% formic acid in methanol (B). The flow rate was 0.4 mL/min. And the gradient of Mobile phase was in the Table B.
Alternatively, an Agilent 6330 series LC/MS/MS spectrometer equipped with G1312A binary pumps, a G1367A autosampler and a G1314C UV detector were used in the analysis. An ESI source was used on the LC/MS/MS spectrometer. The analysis was done in positive ion mode as appropriate and the MRM transition for each analyte was optimized using standard solution. A Capcell MP-C18 100×4.6 mm I.D., […] column (Phenomenex, Torrance, Calif., USA) was used during the analysis. The mobile phase was 5 mM ammonia acetate, 0.1% MeOH in water (A): 5 mM ammonia acetate, 0.1% MeOH in acetonitrile (B) (70:30, v/v). The flow rate was 0.6 mL/min. Column was maintained at ambient temperature. 20 μL of the samples were injected.
The compounds disclosed herein are assessed in pharmacokinetic studies in mice, rats, dogs or monkeys. The compounds are administered as a water solution, 2% HPMC+1% TWEEN®80 in water solution, 5% DMSO+5% solutol in saline, 4% MC suspension or capsule. For the intravenous administration, the animals are generally given at 1 or 2 mg/kg dose. For the oral (p.o.) dosing, mice and rats are generally given 5 or 10 mg/kg dose, and dogs and monkeys are generally given 10 mg/kg dose. The blood samples (0.3 mL) are drawn at 0.25, 0.5, 1.0, 2.0, 3.0, 4.0, 6.0, 8.0, 12 and 24 h time points or 0.083, 0.25, 0.5, 1.0, 2.0, 4.0, 6.0, 8.0 and 24 h time points and centrifuged at 3,000 or 4000 rpm for 2 to 10 min. The plasma solutions are collected, stored at −20° C. or −70° C. until analyzed by LC/MS/MS as described above.

For `CC[C@H](Nc1ncnc(N)c1-c1ncn(C)n1)c1nc2cccc(Cl)c2c(=O)n1-c1ccccc1F` (single isomer, unassigned) [Ex. 45], which CL/F is on record?
The CL/F was 61.8 mL/min/kg.

Which CL/F does the source give for `CC[C@H](Nc1ncnc(N)c1-c1ncc(C)o1)c1nc2cccc(C)c2c(=O)n1-c1ccccc1C` (single isomer, unassigned) [Ex. 28] here?
Its CL/F is 61.2 mL/min/kg.

With `CC[C@H](Nc1ncnc(N)c1-c1nnc(C)o1)c1nc2cccc(F)c2c(=O)n1C1CC1` [Ex. 25, (S)-2-(1-((6-amino-S-(5-methyl-1,3,4-oxadiazol-2-yl)pyrimidin-4-yl)amino)-propyl)-3-cyclopropyl-5-fluoroquinazolin-4(3H)-one] as the compound, how does the CL/F read?
The CL/F was 75.7 mL/min/kg.

Which CL/F does the source give for `CC[C@H](Nc1ncnc(N)c1-c1noc(C)n1)c1nc2cccc(C)c2c(=O)n1C1CC1` here?
The CL/F was 40.3 mL/min/kg.

For `CC[C@H](Nc1ncnc(N)c1-c1nnc(C)o1)c1nc2cccc(Cl)c2c(=O)n1C1CC1` [Ex. 2, (S)-2-(1-((6-amino-5-(5-methyl-1,3,4-oxadiazol-2-yl)pyrimidin-4-yl)amino)-propyl)-5-chloro-3-cyclopropylquinazolin-4(3H)-one], which CL/F is on record?
The CL/F was 41.2 mL/min/kg.

For `CC[C@H](Nc1ncnc(N)c1-c1ncn(C)n1)c1nc2cccc(C)c2c(=O)n1-c1ccccc1C` (single isomer, unassigned) [Ex. 30], which CL/F is on record?
The CL/F was 70.5 mL/min/kg.

Which CL/F does the source give for `CC[C@H](Nc1ncnc(N)c1-c1ccccn1)c1nc2cccc(Cl)c2c(=O)n1C1CC1` [Ex. 11, (S)-2-(1-((6-amino-5-(pyridin-2-yl)pyrimidin-4-yl)amino)propyl)-5-chloro-3-cyclopropylquinazolin-4(3H)-one] here?
The CL/F was 4.83 mL/min/kg.

Which CL/F does the source give for `CC[C@H](Nc1ncnc(N)c1-c1ncn(C)n1)c1nc2cccc(Cl)c2c(=O)n1C1CC1` [Ex. 53, (S)-2-(1-((6-amino-5-(1-methyl-1H-1,2,4-triazol-3-yl)pyrimidin-4-yl)amino)-propyl)-5-chloro-3-cyclopropylquinazolin-4(3H)-one] here?
Its CL/F is 38.2 mL/min/kg.

For `CC[C@H](Nc1ncnc(N)c1-c1nnc(C)o1)c1nc2cccc(Cl)c2c(=O)n1-c1ccccc1C` [Ex. 35, (S)-2-(1-((6-amino-5-(5-methyl-1,3,4-oxadiazol-2-yl)pyrimidin-4-yl)-amino)propyl)-5-chloro-3-(o-tolyl)quinazolin-4(3H)-one], which CL/F is on record?
Its CL/F is 53 mL/min/kg.

Which CL/F does the source give for `CC[C@H](Nc1ncnc(N)c1C1=N[C@@H](C)CO1)c1nc2cccc(Cl)c2c(=O)n1-c1ccccc1` [Ex. 6] here?
The CL/F was 110 mL/min/kg.

For `CC[C@H](Nc1ncnc(N)c1-c1ccn(C)n1)c1nc2cccc(Cl)c2c(=O)n1C1CC1` [Ex. 51, (S)-2-(1-((6-amino-5-(1-methyl-1H-pyrazol-3-yl)pyrimidin-4-yl)amino)propyl)-5-chloro-3-cyclopropylquinazolin-4(3H)-one], which CL/F is on record?
Its CL/F is 27.3 mL/min/kg.

With `CC[C@H](Nc1ncnc(N)c1-c1nc(C)co1)c1nc2cccc(C)c2c(=O)n1-c1ccccc1C` (single isomer, unassigned) [Ex. 29] as the compound, how does the CL/F read?
The CL/F was 130 mL/min/kg.

With `CC[C@H](Nc1ncnc(N)c1-c1noc(C)n1)c1nc2cccc(C)c2c(=O)n1-c1ccccc1C` (single isomer, unassigned) [Ex. 15] as the compound, how does the CL/F read?
Its CL/F is 74.2 mL/min/kg.

With `CC[C@H](Nc1ncnc(N)c1-c1ccon1)c1nc2cccc(Cl)c2c(=O)n1C1CC1` [Ex. 14, (S)-2-(1-((6-amino-5-(isoxazol-3-yl)pyrimidin-4-yl)amino)propyl)-5-chloro-3-cyclopropylquinazolin-4(3H)-one] as the compound, how does the CL/F read?
The CL/F was 46.7 mL/min/kg.

Which CL/F does the source give for `CC[C@H](Nc1ncnc(N)c1-c1ncnn1C)c1nc2cccc(Cl)c2c(=O)n1-c1ccccc1` [Ex. 10, 2-((1S)-1-((6-amino-5-(1-methyl-H-1,2,4-triazol-5-yl)pyrimidin-4-yl)amino)propyl)-5-chloro-3-phenylquinazolin-4(3H)-one] here?
Its CL/F is 3.5 mL/min/kg.

With `CC[C@H](Nc1ncnc(N)c1-c1noc(C)n1)c1nc2ccccc2c(=O)n1-c1ccccc1F` as the compound, how does the CL/F read?
The CL/F was 118 mL/min/kg.
